Assay results as given in US8822383B2, “Germination-stimulant carbamate derivatives and process for preparation thereof” (National University Corporation KOBE UNIVERSITY, priority 2010, dated 2014).

Experiments:
[1] = tested on: Orobanche (Orobanche minor) seeds; experiment: Test for Germination Stimulation Activity on Orobanche; assay type: in vivo; conditions: conditioned Orobanche minor seeds, 20 μl of 10 μM solution, 30° C., counted 4 days after; no compound: 0%
Method: (§1) First, 10 μmol of each test compound was weighed and dissolved in 2 ml of acetone. Each solution was diluted with distilled water to obtain a 10 μM solution. Next, a bottom of a petri dish was covered with a filter paper, and conditioned seeds of Orobanche (Orobanche minor) were placed on the filter paper, and then 20 μl of each diluted solution of test compound was applied to the seeds. For maintaining the humidity, a wet filter paper was prepared as long as water droplets were not dripped from the filter paper, and folded into four, and then placed onto the center of the petri dish. The petri dish was sealed with Parafilm®, and then covered with aluminum foil, and then incubated at 30° C. Four (4) days after, the number of germinated seeds was counted, and then a germination rate (%) was calculated by using the following formula: Germination rate(%)=(the number of germinated seeds/the total number of seeds)×100 The test compounds and the germination rates are shown in Tables 3 and 4. When no test compound was used in this test, the germination rate was 0%.

[2] = tested on: Striga (Striga hermonthica) seeds; experiment: Test for Germination Stimulation Activity on Striga; assay type: in vivo; conditions: conditioned Striga hermonthica seeds, 20 μl of 10 μM solution, 30° C., counted 24 hours later; no compound: 0%
Method: as §1, with “of Striga (Striga hermonthica)” for “of Orobanche (Orobanche minor)”, “C. Twenty four (24) hours later,” for “C. Four (4) days after,”, “Tables 1” for “Tables 3”, “and 2.” for “and 4.”

Compound | Germination rate (%) [1] [%] | Germination rate (%) [2] [%]
CC1=CC(OC(=O)Nc2ccccc2)OC1=O (stereo not shown) [Compound No. 1, 4-methyl-5-oxo-2,5-dihydrofuran-2-yl phenylcarbamate] | 38.8 | 2.6
CC1=CC(OC(=O)NCc2ccccc2)OC1=O (stereo not shown) [Compound No. 2, 4-methyl-5-oxo-2,5-dihydrofuran-2-yl benzylcarbamate] | 61.1 | 38.1
CC1=CC(OC(=O)NCCc2ccccc2)OC1=O (stereo not shown) [Compound No. 3, 4-methyl-5-oxo-2,5-dihydrofuran-2-yl phenethylcarbamate] | 66.9 | 54.0
CC1=CC(OC(=O)N(C)c2ccccc2)OC1=O (stereo not shown) [Compound No. 4, 4-methyl-5-oxo-2,5-dihydrofuran-2-yl methyl(phenyl)carbamate] | 66.3 | 53.5
CC1=CC(OC(=O)N(C)Cc2ccccc2)OC1=O (stereo not shown) [Compound No. 5, 4-methyl-5-oxo-2,5-dihydrofuran-2-yl benzyl(methyl)carbamate] | 75.2 | 48.4
CC1=CC(OC(=O)N(C)CCc2ccccc2)OC1=O (stereo not shown) [Compound No. 6, 4-methyl-5-oxo-2,5-dihydrofuran-2-yl 2-phenethyl(methyl)carbamate] | 30.4 | 28.0
CC1=CC(SC(=S)N(C)c2ccccc2)OC1=O (stereo not shown) [Compound No. 7, 4-methyl-5-oxo-2,5-dihydrofuran-2-yl methyl(phenyl)dithiocarbamate] | 15.3 | 32.6
CC1=CC(SC(=O)N(C)c2ccccc2)OC1=O (stereo not shown) [Compound No. 8, 4-methyl-5-oxo-2,5-dihydrofuran-2-yl methyl(phenyl)thiolcarbamate] | 5.4 | 12.0
CC1=CC(OC(=O)NCCc2cccc(C)c2C)OC1=O (stereo not shown) [Compound No. 9, 4-methyl-5-oxo-2,5-dihydrofuran-2-yl 2-(2,3-dimethylphenyl)ethylcarbamate] | 54.0 | 32.0
CC1=CC(OC(=O)NCCc2ccc(C)c(C)c2)OC1=O (stereo not shown) [Compound No. 10, 4-methyl-5-oxo-2,5-dihydrofuran-2-yl 2-(3,4-dimethylphenyl)ethylcarbamate] | 48.0 | 43.0
CC1=CC(OC(=O)NCCc2ccc3c(c2)OCO3)OC1=O (stereo not shown) [Compound No. 11, 4-methyl-5-oxo-2,5-dihydrofuran-2-yl 2-(3,4-methylenedioxyphenyl)ethylcarbamate] | 47.0 | 37.0
